Data as given in ChEMBL document CHEMBL4715821, “Discovery of 4-ethoxy-7H-pyrrolo[2,3-d]pyrimidin-2-amines as potent, selective and orally bioavailable LRRK2 inhibitors” (Bioorg Med Chem Lett, 2018).

Tests used:
[1] = target: Mast/stem cell growth factor receptor Kit (Homo sapiens) (UniProt P10721); test: Inhibition of c-kit (unknown origin) assessed as residual activity at 1 uM relative to control
[2] = target: Protein kinase C alpha type (Homo sapiens) (UniProt P17252); test: Inhibition of PKCalpha (unknown origin) assessed as residual activity at 1 uM by Kinomescan method relative to control
[3] = target: Casein kinase I isoform gamma-3 (Homo sapiens) (UniProt Q9Y6M4); test: Inhibition of CK1g3 (unknown origin) assessed as residual activity at 1 uM by Kinomescan method relative to control
[4] = target: RAC-beta serine/threonine-protein kinase (Homo sapiens) (UniProt P31751); test: Inhibition of wild-type human partial length AKT2 expressed in bacterial expression system assessed as residual activity at 1 uM by Kinomescan method relative to control
[5] = target: Tau-tubulin kinase 1 (Homo sapiens) (UniProt Q5TCY1); test: Inhibition of TTBK1 (unknown origin) assessed as residual activity at 1 uM by Kinomescan method relative to control
[6] = target: Death-associated protein kinase 1 (Homo sapiens) (UniProt P53355); test: Inhibition of wild-type human partial length DAPK1 (M1 to F296 residues) expressed in bacterial expression system assessed as residual activity at 1 uM by Kinomescan method relative to control
[7] = target: Protein-tyrosine kinase 2-beta (Homo sapiens) (UniProt Q14289); test: Inhibition of wild-type human full length PYK2 (M1 to E967 residues) expressed in bacterial expression system assessed as residual activity at 1 uM by Kinomescan method relative to control
[8] = target: Dual specificity mitogen-activated protein kinase kinase 1 (Homo sapiens) (UniProt Q02750); test: Inhibition of wild-type human full length MEK1 (M1 to V393 residues) expressed in mammalian expression system assessed as residual activity at 1 uM by Kinomescan method relative to control
[9] = target: Homeodomain-interacting protein kinase 4 (Homo sapiens) (UniProt Q8NE63); test: Inhibition of wild-type human partial length HIPK4 (M1 to V384 residues) expressed in bacterial expression system assessed as residual activity at 1 uM by Kinomescan method relative to control
[10] = target: Serine/threonine-protein kinase DCLK1 (Homo sapiens) (UniProt O15075); test: Inhibition of wild-type human partial length DCAMKL1 (L270 to A662 residues) expressed in mammalian expression system assessed as residual activity at 1 uM by Kinomescan method relative to control
Sequence of Serine/threonine-protein kinase DCLK1 (Homo sapiens) (O15075 whole entry, the tested form may be a part): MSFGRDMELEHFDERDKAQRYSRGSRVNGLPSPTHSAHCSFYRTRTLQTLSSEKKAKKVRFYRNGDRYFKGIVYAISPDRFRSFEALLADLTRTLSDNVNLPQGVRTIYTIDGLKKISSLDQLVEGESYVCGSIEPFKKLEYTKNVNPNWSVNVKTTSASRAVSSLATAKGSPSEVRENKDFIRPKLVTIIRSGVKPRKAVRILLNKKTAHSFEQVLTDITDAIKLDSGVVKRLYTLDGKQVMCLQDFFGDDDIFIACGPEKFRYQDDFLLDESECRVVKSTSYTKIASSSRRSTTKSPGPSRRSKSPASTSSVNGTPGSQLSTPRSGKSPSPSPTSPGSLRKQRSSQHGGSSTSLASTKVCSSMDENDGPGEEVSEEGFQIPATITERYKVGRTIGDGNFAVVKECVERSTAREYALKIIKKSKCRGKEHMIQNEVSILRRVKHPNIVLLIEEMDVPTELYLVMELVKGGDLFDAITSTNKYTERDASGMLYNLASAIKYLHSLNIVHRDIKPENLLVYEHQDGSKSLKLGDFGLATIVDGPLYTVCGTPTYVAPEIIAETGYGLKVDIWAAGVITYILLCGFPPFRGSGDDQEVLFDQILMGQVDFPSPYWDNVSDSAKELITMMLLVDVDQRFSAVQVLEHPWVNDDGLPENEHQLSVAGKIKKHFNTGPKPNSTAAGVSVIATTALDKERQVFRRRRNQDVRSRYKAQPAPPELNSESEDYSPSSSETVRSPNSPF

[11] = target: Death-associated protein kinase 3 (Homo sapiens) (UniProt O43293); test: Inhibition of wild-type human partial length DAPK3 (M1 to A277 residues) expressed in bacterial expression system assessed as residual activity at 1 uM by Kinomescan method relative to control
Sequence of Death-associated protein kinase 3 (Homo sapiens) (O43293 whole entry, looked up, the tested form may be a part): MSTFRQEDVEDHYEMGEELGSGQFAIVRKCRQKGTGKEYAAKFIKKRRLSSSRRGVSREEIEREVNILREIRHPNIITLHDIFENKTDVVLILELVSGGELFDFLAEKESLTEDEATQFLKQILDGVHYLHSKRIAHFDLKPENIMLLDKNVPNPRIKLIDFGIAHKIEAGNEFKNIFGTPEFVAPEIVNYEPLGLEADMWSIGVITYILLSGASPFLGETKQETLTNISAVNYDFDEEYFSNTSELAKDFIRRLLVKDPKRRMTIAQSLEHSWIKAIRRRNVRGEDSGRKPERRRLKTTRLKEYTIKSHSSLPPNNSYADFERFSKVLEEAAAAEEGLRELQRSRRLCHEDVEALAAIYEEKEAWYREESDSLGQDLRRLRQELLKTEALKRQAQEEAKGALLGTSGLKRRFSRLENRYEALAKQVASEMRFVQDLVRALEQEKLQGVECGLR

[12] = target: T1, Mitogen-activated protein kinase kinase kinase kinase 3 (Homo sapiens) (UniProt Q8IVH8); test: Inhibition of wild-type human partial length MAP4K3 (M1 to D301 residues) expressed in bacterial expression system assessed as residual activity at 1 uM by Kinomescan method relative to control
T1 sequence (whole entry): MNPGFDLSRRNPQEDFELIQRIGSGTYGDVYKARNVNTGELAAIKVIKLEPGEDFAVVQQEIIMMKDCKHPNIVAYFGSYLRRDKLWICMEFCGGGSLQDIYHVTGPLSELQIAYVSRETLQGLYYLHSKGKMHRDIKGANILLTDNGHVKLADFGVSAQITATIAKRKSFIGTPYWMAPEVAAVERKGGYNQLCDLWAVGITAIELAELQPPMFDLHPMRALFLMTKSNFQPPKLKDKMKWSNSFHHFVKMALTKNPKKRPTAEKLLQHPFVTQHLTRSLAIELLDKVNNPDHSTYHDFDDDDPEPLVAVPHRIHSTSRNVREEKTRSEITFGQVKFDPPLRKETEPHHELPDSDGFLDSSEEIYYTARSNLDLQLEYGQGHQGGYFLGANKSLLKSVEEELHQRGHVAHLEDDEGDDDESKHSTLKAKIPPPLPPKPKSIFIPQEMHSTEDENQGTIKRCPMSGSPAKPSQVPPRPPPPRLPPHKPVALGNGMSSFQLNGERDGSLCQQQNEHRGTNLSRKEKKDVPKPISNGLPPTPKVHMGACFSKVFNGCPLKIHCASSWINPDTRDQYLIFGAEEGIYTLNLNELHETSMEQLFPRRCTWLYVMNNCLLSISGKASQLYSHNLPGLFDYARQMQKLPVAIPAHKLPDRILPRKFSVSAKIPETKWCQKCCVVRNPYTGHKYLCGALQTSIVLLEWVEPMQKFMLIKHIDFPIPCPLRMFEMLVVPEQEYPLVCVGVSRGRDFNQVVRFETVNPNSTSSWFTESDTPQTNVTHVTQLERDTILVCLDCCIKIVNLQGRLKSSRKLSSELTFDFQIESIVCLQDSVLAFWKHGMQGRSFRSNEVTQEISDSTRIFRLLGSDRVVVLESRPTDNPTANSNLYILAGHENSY

[13] = target: Homeodomain-interacting protein kinase 3 (Homo sapiens) (UniProt Q9H422); test: Inhibition of wild-type human partial length HIPK3 (M153 to N562 residues) expressed in mammalian expression system assessed as residual activity at 1 uM by Kinomescan method relative to control
Sequence of Homeodomain-interacting protein kinase 3 (Homo sapiens) (Q9H422 whole entry, looked up, the tested form may be a part): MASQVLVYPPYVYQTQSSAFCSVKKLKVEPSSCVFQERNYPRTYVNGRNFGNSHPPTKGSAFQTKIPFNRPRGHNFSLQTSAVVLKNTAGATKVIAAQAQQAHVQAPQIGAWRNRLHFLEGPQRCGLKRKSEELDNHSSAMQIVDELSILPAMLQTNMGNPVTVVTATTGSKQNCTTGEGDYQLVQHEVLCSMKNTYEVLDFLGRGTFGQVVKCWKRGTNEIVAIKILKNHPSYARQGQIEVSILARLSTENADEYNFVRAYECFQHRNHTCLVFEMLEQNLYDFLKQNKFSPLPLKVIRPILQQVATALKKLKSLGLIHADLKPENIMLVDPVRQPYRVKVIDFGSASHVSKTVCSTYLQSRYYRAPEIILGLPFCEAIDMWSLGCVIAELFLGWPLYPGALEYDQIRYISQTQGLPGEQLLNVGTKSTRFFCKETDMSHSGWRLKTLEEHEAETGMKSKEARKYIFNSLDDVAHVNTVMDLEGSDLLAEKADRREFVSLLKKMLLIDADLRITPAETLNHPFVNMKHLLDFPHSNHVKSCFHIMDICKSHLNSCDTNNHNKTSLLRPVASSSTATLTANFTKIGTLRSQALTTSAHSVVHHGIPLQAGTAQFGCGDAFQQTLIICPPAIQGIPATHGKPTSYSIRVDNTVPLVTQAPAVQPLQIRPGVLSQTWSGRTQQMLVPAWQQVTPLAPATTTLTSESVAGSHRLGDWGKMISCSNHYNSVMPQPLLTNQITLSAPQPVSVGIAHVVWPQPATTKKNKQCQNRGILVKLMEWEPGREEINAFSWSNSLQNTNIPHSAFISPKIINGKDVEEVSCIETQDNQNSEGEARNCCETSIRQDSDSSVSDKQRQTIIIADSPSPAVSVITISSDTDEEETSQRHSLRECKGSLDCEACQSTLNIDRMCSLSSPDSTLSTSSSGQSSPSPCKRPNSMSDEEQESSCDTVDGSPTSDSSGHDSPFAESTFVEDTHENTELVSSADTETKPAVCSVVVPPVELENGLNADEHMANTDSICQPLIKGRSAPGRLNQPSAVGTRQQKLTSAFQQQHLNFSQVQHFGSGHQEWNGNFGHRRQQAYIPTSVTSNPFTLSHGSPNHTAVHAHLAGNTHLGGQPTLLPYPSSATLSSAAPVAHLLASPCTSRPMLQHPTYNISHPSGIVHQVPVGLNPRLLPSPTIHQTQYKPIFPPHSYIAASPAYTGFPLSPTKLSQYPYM

[14] = target: Serine/threonine-protein kinase PAK 6 (Homo sapiens) (UniProt Q9NQU5); test: Inhibition of wild-type human partial length PAK6 (N298 to C681 residues) expressed in bacterial expression system assessed as residual activity at 1 uM by Kinomescan method relative to control
[15] = target: Tyrosine-protein kinase Yes (Homo sapiens) (UniProt P07947); test: Inhibition of wild-type human partial length YES (T257 to L543 residues) expressed in bacterial expression system assessed as residual activity at 1 uM by Kinomescan method relative to control
[16] = target: Serine/threonine-protein kinase 38 (Homo sapiens) (UniProt Q15208); test: Inhibition of wild-type human partial length NDR1 (N33 to E449 residues) expressed in mammalian expression system assessed as residual activity at 1 uM by Kinomescan method relative to control
Sequence of Serine/threonine-protein kinase 38 (Homo sapiens) (Q15208 2-465 limits assumed): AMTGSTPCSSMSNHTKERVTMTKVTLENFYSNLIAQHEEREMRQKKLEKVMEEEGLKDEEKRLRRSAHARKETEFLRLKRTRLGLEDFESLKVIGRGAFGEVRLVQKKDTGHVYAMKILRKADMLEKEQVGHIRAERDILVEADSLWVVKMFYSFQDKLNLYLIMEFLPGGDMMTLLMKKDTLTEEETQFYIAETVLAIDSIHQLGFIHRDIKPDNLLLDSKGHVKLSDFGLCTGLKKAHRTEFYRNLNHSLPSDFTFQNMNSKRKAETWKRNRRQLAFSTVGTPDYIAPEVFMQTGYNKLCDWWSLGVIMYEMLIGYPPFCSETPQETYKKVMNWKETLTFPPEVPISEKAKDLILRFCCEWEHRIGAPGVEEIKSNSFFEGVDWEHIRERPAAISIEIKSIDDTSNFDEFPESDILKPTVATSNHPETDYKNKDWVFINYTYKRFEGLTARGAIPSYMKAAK

[17] = target: Serine/threonine-protein kinase PLK4 (Homo sapiens) (UniProt O00444); test: Inhibition of wild-type human partial length PLK4 (M1 to S273 residues) expressed in mammalian expression system assessed as residual activity at 1 uM by Kinomescan method relative to control
[18] = target: Serine/threonine-protein kinase DCLK2 (Homo sapiens) (UniProt Q8N568); test: Inhibition of wild-type human partial length DCAMKL2 (K273 to V664 residues) expressed in bacterial expression system assessed as residual activity at 1 uM by Kinomescan method relative to control
Sequence of Serine/threonine-protein kinase DCLK2 (Homo sapiens) (Q8N568 whole entry, the tested form may be a part, canonical isoform): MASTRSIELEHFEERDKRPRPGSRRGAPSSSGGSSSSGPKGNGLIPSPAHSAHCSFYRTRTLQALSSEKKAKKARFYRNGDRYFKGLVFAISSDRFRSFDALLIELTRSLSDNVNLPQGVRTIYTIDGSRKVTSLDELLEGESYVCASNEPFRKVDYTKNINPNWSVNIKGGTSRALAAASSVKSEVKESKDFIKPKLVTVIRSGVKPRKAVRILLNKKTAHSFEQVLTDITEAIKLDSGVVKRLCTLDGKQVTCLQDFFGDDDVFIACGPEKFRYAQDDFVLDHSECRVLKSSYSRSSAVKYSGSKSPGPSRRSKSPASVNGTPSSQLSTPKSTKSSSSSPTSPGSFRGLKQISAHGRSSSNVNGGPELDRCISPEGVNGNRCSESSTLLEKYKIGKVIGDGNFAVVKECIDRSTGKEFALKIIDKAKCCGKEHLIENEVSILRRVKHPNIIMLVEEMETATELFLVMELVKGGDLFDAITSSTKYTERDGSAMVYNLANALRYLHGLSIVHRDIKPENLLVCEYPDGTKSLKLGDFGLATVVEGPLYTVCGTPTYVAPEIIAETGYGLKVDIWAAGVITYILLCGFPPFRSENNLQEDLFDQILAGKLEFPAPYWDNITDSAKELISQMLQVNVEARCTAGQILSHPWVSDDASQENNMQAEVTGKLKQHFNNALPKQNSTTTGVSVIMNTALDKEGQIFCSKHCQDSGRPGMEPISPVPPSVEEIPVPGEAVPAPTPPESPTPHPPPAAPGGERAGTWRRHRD

[19] = target: Casein kinase I isoform gamma-1 (Homo sapiens) (UniProt Q9HCP0); test: Inhibition of CK1g1 (unknown origin) assessed as residual activity at 1 uM by Kinomescan method relative to control
[20] = target: Serine/threonine-protein kinase PAK 4 (Homo sapiens) (UniProt O96013); test: Inhibition of wild-type human partial length PAK4 (Q144 to R438 residues) expressed in bacterial expression system assessed as residual activity at 1 uM by Kinomescan method relative to control
Sequence of Serine/threonine-protein kinase PAK 4 (Homo sapiens) (O96013 whole entry, looked up, the tested form may be a part): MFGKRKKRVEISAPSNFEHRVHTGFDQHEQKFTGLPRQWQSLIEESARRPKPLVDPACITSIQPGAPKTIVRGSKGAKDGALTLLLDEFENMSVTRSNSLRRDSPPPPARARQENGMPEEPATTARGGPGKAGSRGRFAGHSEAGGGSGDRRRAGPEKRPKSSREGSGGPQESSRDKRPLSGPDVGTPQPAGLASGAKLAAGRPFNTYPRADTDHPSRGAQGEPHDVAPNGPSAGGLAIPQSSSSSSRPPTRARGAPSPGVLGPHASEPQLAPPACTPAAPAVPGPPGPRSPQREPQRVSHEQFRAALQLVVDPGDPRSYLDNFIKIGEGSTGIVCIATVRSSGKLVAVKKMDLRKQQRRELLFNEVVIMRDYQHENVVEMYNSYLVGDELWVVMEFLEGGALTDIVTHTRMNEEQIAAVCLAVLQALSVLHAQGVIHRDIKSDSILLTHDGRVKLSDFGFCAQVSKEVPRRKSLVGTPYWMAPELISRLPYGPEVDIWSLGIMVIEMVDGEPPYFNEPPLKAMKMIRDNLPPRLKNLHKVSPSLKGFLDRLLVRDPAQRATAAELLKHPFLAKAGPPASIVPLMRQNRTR

In the case of `CCOc1nc(Nc2ccc(C(=O)N3CCOCC3)cc2OC)nc2[nH]ccc12`, the Activity [1] is reported as 98.6%, the Activity [2] is reported as 95.5% and the Activity [3] is reported as 92.3%. It also gave an Activity [4] of 97.1%, an Activity [5] of 103% and an Activity [6] of 64.9%. For the same molecule, the Activity [7] was 36.1%, the Activity [8] was 100% and the Activity [9] was 101%. For the same molecule, the Activity [10] was 86.5%, the Activity [11] was 66.9% and the Activity [12] was 88.9%. The Activity [13] was 98%, the Activity [14] was 99.2% and the Activity [15] was 94.4%. The Activity [16] was 97.8%, the Activity [17] was 58.8% and the Activity [18] was 93.8%. The Activity [19] was 95% and the Activity [20] was 99%.
